# Source: PMC9918186, “Interaction of Positively Charged Oligopeptides with Blood Plasma Proteins” (International Journal of Molecular Sciences, 2023)
# Legend:
# [1] = previous studies; cited from earlier work
# Source text: (§1) The subject of this study was oligopeptides with the following sequences: Lys-Dab-Dab-Gly-Orn-Pro-His-Lys-Arg-Lys-Dbt, Lys-Dab-Ala-Gly-Orn-Pro-His-Lys-Arg, and Lys-Dab-Dab-Gly-Orn-Pro-Phe(2-F)-Lys-Arg, which are referred to as L1, L2, and L3, respectively, in the remainder of this work. The investigated oligopeptides consist of an amino group (NH2) in the side chain of unique unnatural amino acids such as Dab (2,4-diaminobutyric acid) and Orn (2,5-diaminopentanoic acid) and standard amino acids such as Lys, and N-terminus and in Dbt in the C-terminal region. Additionally, the presence of the g ...
# [2] = system: oxygen-free radical species (ROS); conditions: previous studies; cited from earlier work
# Source text: as §1
# [3] = target: T1, BSA (Bos taurus, UniProt P02769); test: ATR-FTIR Amide I deconvolution, secondary structure of BSA with peptide; design: species or system bovine; conditions: for Random Coil of BSA / β-Anti of BSA / β-Sheet of BSA / β-Turn of BSA / α-Helix of BSA: ATR-FTIR Amide I
# T1 construct: purchased Sigma Aldrich
# T1 sequence (P02769 25-607): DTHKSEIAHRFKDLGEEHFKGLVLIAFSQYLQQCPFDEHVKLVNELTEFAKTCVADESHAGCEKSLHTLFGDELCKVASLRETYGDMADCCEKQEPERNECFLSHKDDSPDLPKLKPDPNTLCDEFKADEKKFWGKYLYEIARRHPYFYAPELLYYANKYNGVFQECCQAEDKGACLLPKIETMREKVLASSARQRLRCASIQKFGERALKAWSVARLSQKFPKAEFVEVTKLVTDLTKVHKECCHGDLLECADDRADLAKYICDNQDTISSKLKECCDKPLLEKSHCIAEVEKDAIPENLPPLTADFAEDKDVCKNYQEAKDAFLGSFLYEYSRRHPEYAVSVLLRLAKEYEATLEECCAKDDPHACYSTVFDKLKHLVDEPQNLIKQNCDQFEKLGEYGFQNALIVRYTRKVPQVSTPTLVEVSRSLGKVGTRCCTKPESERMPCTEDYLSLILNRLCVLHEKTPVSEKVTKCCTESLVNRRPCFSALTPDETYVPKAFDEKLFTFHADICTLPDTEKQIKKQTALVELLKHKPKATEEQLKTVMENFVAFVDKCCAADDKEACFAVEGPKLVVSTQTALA
# Source text: The perturbation in protein structure conformation can be monitored by CD spectroscopy as well as the ATR-FTIR method. These secondary structure changes are confirmation of the interaction between the studied compound and the protein [64, 65, 66, 67]. The range of the wavenumber from 1700 to 1000 cm^−1 is the most varied region and with the richest information on protein spectra. The most characteristic bands are Amide I and Amide II, which originate from the C=O stretching vibration and C–N– stretching coupled with N–H bending, respectively. Amide I was detected for BSA at 1652 cm^−1 and GGF at 1637 cm^−1 (Figure 4). The differences in the position of these bands are connected with the variety in the secondary structure conformation, while Amide II consistently occurred at 1545 and 1546 cm^−1 on the BSA and GGF spectra, respectively (Figure 4). The much less intense peak of Amide III usually accrued by C–N– stretching and bending vibration was only noticed in the BSA spectrum at 1307 cm^−1 (Figure 4). The peaks detected at 1454 cm^−1 (BSA) and 1452 cm^−1 (GGF) appeared by CH3 group symmetric and asymmetric bending vibration (δs, δas). The absorption signal 1400 cm^−1 may be assigned to stretching vibration (ν) caused by the carboxylic group (COO^−). The studied peptides interact with BSA and GGF, which is manifested by a reduction in the intensity of the absorption peaks (Figure 4). With the increase in the ligand concentration in the protein solution, the intensity of the absorption peaks decreased (Figure 4). The Amide I and II in the BSA spectrum decreased above all after binding with L1 and slightly in the samples from L2 and L3. […] Moreover, after the complexation of the investigated peptides with GGF, an increase in the band 1060 cm^−1 was responsible for stretching vibration C–O absorption, which was manifested the most by L2 and L3 compounds.
# The shape and intensity variation in the Amide I band is the confirmation of peptide L1, L2, and L3 interaction with the protein’s backbone. The hydrogen bonds in the protein structure are violated after the active molecules’ binding and influence the frequency of the C=O vibrations’ absorption. The frequency of stretching vibrations can be reduced after changes in hydrogen bonding in the protein, whereas the frequency of bending vibrations can be increased after ligand to protein complexation. The Byler and Susi procedure was used to analyse the secondary structure protein conformation. The quantity analysis of the secondary structure in the protein is mostly conducted based on Amide I deconvolution, and it is the most frequently analyzed vibration band, which is very vulnerable to the detection of changes in the structure. The fragment of each normalized spectrum with the Amide I peak was extracted and a second derivate was made. The self-deconvolution and curve fitting by the Gaussian/Lorenzian function allowed determination of the intensity and total area under the peaks, which corresponds with the contribution of the type of structure. The position of each band component may be assigned to a corresponding shape of the secondary structure: the α-helix (1660–1647 cm^−1), β-sheet (1640–1610 cm^−1), β-turn (1660–1680 cm^−1), β-antiparallel (1681–1695 cm^−1), and random coil (1650–1630 cm^−1) structures.
# The infrared spectra were measured on Nicolet iS50 FTIR (Thermo Scientific, Waltham, MA, USA) spectrometer equipped with Attenuated Total Reflectance (ATR) accessory. The deuterated triglicyne sulphate (DTGS) detector and KBr beam splitter were applied. The spectral data were recorded within the range of 4000 to 600 cm^−1 with a resolution of 4 cm^−1 and 100 scans were averaged for each spectrum. The measurements were accomplished at room temperature. The concentration of blood plasma proteins BSA (Sigma Aldrich, USA), and GGF (Sigma Aldrich, USA) were 6.5 × 10^−4 moldm^−3. […]
substance,measurement,setting,value
Lys-Dab-Dab-Gly-Orn-Pro-His-Lys-Arg-Lys-Dbt [L1],anti-inflammatory activity,[1],possess anti-inflammatory activity
same,effect on level of oxygen-free radical species (ROS),[2],reduce the level of oxygen-free radical species (ROS)
same,Random Coil of BSA,[3]; BSA/peptide 1:0.5,26.54%
same,β-Anti of BSA,[3]; BSA/peptide 1:0.5,0.77%
same,β-Sheet of BSA,[3]; BSA/peptide 1:0.5,3.87%
same,β-Turn of BSA,[3]; BSA/peptide 1:0.5,7.47%
same,α-Helix of BSA,"[3]; BSA/peptide 1:0.5, BSA 6.5 × 10^−4 M, room temperature",61.36%
same,Random Coil of BSA,[3]; BSA/peptide 1:1.0,27.93%
same,α-Helix of BSA,[3]; BSA/peptide 1:1.0,49.45%
same,β-Anti of BSA,[3]; BSA/peptide 1:1.0,0.49%
same,β-Sheet of BSA,[3]; BSA/peptide 1:1.0,8.28%
same,β-Turn of BSA,[3]; BSA/peptide 1:1.0,13.86%
same,Random Coil of BSA,[3]; BSA/peptide 1:1.5,27.61%
same,α-Helix of BSA,[3]; BSA/peptide 1:1.5,49.40%
same,β-Anti of BSA,[3]; BSA/peptide 1:1.5,0.31%
same,β-Sheet of BSA,[3]; BSA/peptide 1:1.5,8.69%
same,β-Turn of BSA,[3]; BSA/peptide 1:1.5,13.99%
same,differences in the secondary structure of BSA,"[3]; ATR-FTIR, after peptide addition",16%
same,decrease of β-antiparallel framework of albumin,"[3]; ATR-FTIR, versus free BSA",about 2%
same,growth of β-sheet of albumin,"[3]; ATR-FTIR, versus free BSA",7.05%
same,growth of β-turn of albumin,"[3]; ATR-FTIR, versus free BSA",7.34%
same,increase in the share of the random structure of albumin,"[3]; ATR-FTIR, versus free BSA",2%
same,reduction in the α-helix of albumin,"[3]; ATR-FTIR, versus free BSA",more than 14%
